One assay has as its target D(2) dopamine receptor (Homo sapiens, UniProt P14416). Put plainly: In vitro binding affinity towards cloned human Dopamine receptor D2A using [3H]- Raclopride as radioligand.
Assay [1] concerns the target T1, 5-hydroxytryptamine receptor 1A (Homo sapiens, UniProt P08908).
T1 sequence (P08908 whole entry): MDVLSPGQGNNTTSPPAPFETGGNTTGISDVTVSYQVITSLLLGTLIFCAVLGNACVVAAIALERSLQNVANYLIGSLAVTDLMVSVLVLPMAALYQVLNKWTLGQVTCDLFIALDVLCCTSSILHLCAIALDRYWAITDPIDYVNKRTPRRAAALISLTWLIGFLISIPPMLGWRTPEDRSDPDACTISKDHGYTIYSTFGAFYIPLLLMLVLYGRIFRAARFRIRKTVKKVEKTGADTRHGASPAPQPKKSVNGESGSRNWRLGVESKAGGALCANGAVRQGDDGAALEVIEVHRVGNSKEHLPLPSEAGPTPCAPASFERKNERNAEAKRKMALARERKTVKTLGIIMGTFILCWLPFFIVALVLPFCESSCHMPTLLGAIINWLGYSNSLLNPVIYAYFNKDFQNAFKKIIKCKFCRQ
Kind of assay: In vitro binding affinity towards cloned human 5-hydroxytryptamine 1A receptor expressed in Chinese hamster ovary (CHO) cells using [3H]8-OH-DPAT as radioligand. The class given is cell-based.

Assay [2] concerns the target 5-hydroxytryptamine receptor 7 (Rattus norvegicus, UniProt P32305). Put plainly: In vitro binding affinity towards cloned rat 5-hydroxytryptamine 7 receptor using [3H]5-HT as radioligand.
Assay [3] concerns the target T2, 5-hydroxytryptamine receptor 1A (Rattus norvegicus, UniProt P19327).
T2 sequence (P19327 whole entry): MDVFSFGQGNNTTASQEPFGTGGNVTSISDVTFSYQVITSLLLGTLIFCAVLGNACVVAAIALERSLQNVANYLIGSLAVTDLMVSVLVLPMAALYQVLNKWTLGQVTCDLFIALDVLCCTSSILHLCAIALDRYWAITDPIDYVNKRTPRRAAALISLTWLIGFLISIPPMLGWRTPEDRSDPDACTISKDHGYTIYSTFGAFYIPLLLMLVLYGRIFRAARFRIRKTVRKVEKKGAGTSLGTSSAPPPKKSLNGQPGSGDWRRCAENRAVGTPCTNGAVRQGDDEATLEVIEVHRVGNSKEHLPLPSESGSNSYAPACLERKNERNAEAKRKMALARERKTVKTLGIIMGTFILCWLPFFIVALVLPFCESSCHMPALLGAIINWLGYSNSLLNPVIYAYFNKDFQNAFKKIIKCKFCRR
Put plainly: In vitro binding affinity towards 5-hydroxytryptamine 1A receptor using [3H]8-OH-DPAT as radioligand in rat hippocampus membrane. The class given is cell membranes.

As usually defined, the Ki is the dissociation constant of the complex between target and ligand, obtained from inhibition or displacement. A higher Ki goes with a looser hold on the target.

5-hydroxytryptamine receptor 7, sequence (P32305 whole entry): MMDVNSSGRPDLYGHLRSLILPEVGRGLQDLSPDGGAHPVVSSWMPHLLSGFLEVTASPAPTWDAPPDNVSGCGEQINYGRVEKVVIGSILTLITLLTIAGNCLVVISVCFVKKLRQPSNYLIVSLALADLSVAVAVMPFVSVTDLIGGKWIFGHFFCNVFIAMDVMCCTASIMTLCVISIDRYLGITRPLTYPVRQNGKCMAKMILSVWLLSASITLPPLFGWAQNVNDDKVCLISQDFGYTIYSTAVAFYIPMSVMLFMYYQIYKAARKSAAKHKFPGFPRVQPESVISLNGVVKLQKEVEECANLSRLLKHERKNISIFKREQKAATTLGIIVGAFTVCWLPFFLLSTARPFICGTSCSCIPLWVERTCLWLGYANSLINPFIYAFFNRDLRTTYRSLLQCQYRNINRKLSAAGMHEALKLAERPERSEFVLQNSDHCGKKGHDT
D(2) dopamine receptor, sequence (P14416 whole entry): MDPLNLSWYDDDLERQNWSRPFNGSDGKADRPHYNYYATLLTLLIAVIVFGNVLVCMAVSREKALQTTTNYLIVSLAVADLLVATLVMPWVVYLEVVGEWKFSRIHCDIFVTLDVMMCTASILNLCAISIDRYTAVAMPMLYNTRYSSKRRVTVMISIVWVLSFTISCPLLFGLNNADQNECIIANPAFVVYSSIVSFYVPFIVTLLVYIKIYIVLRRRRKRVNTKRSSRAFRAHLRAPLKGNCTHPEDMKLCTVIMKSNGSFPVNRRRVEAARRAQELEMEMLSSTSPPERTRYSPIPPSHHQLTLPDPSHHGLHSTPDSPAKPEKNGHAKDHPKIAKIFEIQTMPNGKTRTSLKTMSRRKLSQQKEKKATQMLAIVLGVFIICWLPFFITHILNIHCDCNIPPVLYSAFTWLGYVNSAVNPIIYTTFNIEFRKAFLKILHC

Consider `CN1CCc2ccc3cnc4cccc5c4c3c2[C@H]1C5`, for which the Ki came out at 1330 nM on D(2) dopamine receptor, 62.3 nM in assay [1] and 27.2 nM in assay [2].
Turning to `CN1CCc2ccc3[nH]c(=O)c4cccc5c4c3c2[C@H]1C5`, the Ki at D(2) dopamine receptor worked out at 6110 nM; in assay [1], 373 nM; in assay [2] it was 341 nM.
As to `CN1CCc2ccc3oc(=O)c4cccc5c4c3c2[C@H]1C5`, the Ki was determined as 265 nM at D(2) dopamine receptor, 2030 nM in assay [3] and 1480 nM in assay [2].
In the case of `CN1CCc2ccc3c(=O)oc4cccc5c4c3c2[C@H]1C5`, the inhibitory constant (Ki) on D(2) dopamine receptor came out at 541 nM; in assay [3], 1150 nM; in assay [2] it was 283 nM.
`CN1CCc2ccc3c(=O)[nH]c4cccc5c4c3c2[C@H]1C5`: the Ki on D(2) dopamine receptor stood at 54.6 nM; in assay [1], 178 nM; in assay [2] it was 54.5 nM.
For `CN1CCc2ccc3ncc4cccc5c4c3c2[C@H]1C5`, the figures for the Ki (at D(2) dopamine receptor; in assay [1]; in assay [2]) were 327 nM, 33.9 nM and 81 nM, respectively.

These data come from ChEMBL document CHEMBL1134169, “Serotonergic and dopaminergic activities of rigidified (R)-aporphine derivatives” (Bioorg Med Chem Lett, 2001).
